# What was measured:
# [1] = test system: formalin-induced nociception; assay: Formalin test, rat (second/late phase); assay type: in vivo; settings: i.p., 21.5 mg/kg, late phase
# Procedure: Experiments to determine the antinociceptive activity of the compounds according to the invention of Formula I were carried out in the formalin test on male rats (Sprague-Dawley, 150-170 g).
# In the formalin test, the first (early) phase (0-15 min after formalin injection) was distinguished from the second (late) phase (15-60 min after formalin injection) (D. Dubuisson, S. G. Dennis, Pain 4, 161-174 (1977)). The early phase, as a direct reaction to the formalin injection, represents a model for acute pain while the late phase is considered as a model for persistent (chronic) pain (T. J. Coderre, J. Katz, A. L. Vaccarino, R. Melzack, Pain, Vol. 52, p. 259,1993).
# The compounds according to the invention were investigated in the second phase of the formalin test to obtain information about the effects of substances in chronic/inflammatory pain.
# A nociceptive reaction was induced in freely moving experimental animals by a single subcutaneous formalin injection (50 μl, 5%) into the dorsal side of the back right paw, the nociceptive reaction being portrayed by the following behavioral parameters: lifting and holding the respective paw (Score 1), shaking and twitching (Score 2), licking and biting (Score 3). The different behavioral patterns triggered by the formalin injection were recorded continuously by observing the animals in the late phase of the formalin test and were weighted differently in an evaluation. Normal behavior in which the animal loads all four paws uniformly was recorded as score 0. The moment of administration prior to the formalin injection was selected according to the method of administration of the compounds according to the invention (intraperitoneal: 15 min, intravenous: 5 min). The described behavioral patterns (Score 1 to 3) in the animals are reduced and possibly even eliminated after injection of substances which have an antinociceptive effect in the formalin test. A comparisom was made with control animals which had received vehicles (solvents) prior to formalin administration. The nociceptive behavior was calculated as a so-called pain rate (PR). The various behavioral parameters received a different weighting (Factor 0, 1, 2, 3). Calculation took place at partial intervals of 3 min according to the following formula:
# Substance and vehicle groups include n=10 animals in each case. The effect of the substance was determined as a percentage change versus control on the basis of the PR calculations. The ED50 calculations were made by regression analysis.
# NMDA receptor channel = molecular target: T1, NMDA receptor channel (Rattus norvegicus, UniProt P35439); assay: NMDA/glycine-induced ionic currents in RNA-injected Xenopus oocytes (two-electrode voltage clamp); assay type: cell-based
# T1 construct: were micro-injected with total RNA from brain tissue of adult rats; expressed in transfected cells; host or cells: Xenopus laevis oocytes injected with total RNA from adult rat brain
# Procedure: NMDA/Glycine-induced Ionic Currents in RNA-injected Xenopus Oocytes
# The experiment to determine functional changes in the NMDA receptor channel due to the compound according to the invention of Formula I was carried out on oocytes of the South African clawed frog, Xenopus laevis. Neuronal NMDA receptor channels were formed for this purpose after injection of RNA from rats' brain into oocytes and were measured by coapplication of NMDA and glycine-activated ionic currents.
# Xenopus oocytes from stages V and VI (Dumont, J. N., Journal of Morphology, Vol. 136, 1972) were micro-injected with total RNA from brain tissue of adult rats (100-130 ng/cell) and kept in the culture medium (composition in mmol/l: 88.0 NaCl, 1.0 KCl, 1.5 CaCl2, 0.8 MgSO4, 2.4 NaHCO3, 5 HEPES, 100 IU/ml penicillin, 100 μg/ml streptomycin, pH 7.4) for up to 10 days at 20° C. Transmembranous ionic currents were recorded as in conventional two-electrode voltage clamp technology with a holding potential of −70 mV (P. Bloms-Funke P, M. Madeja, U. Muβhoff, E.-J. Speckman, Neuroscience Letters, Vol. 205, p. 115, 1996). […] To test the effects of substances brought about via the glycine B-binding site of the NMDA receptor channel, the glycine dosage/response curve was recorded with and without the respective compound according to the invention. […] The data was analyzed using Igor-Pro software (Version 3.1, WaveMetrics USA). […]
structure (smiles),measurement,setting,value
"O=C(O)C1Nc2cc(Cl)cc(Cl)c2C2C=CCC12 (stereo not drawn) [Example 2, 7,9-dichloro-3a,4,5,9b-tetrahydro-3H-cyclopenta[c]quinoline-4-carboxylic Acid]",% inhibition of formalin-induced nociception,[1],64.5%
same,Kb,"NMDA receptor channel; NMDA 100 μmol/l with glycine 0-100 μmol/l, oocytes injected with rat brain RNA, read-out: NMDA/glycine-induced ionic currents pA2 value of glycine dosage/response curve (converted)",398 nM
same,Effect on the glycine dosage/response curve (FIG. 1),"NMDA receptor channel; RNA-injected oocytes, amplitude standardized to NMDA/glycine (100/10 μmol/l)",displacement of the glycine dosage/response curve to the right

# From US6699877B2 (Gruenenthal GmbH, priority 2000, dated 2004)
